This note sets out measurements from patent US20250230147A1, “LACTAMS AS CBL-B INHIBITORS” (Genentech, Inc., priority 2021, published 2025).

Counter-ions that a name gives are not always drawn.

One assay deals with Cbl-b (Homo sapiens (Human), UniProt Q13191). In words: Cbl-b LCK Ub TR-FRET assay (Cbl-b Lck HTRF). Format: biochemical. Put shortly: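 TR-FRET (340 nm excitation, 615/665 nm emission) read after adding HA-ubiquitin–UBE2D2 thioester, anti-HA-D2 and streptavidin-Eu. Beforehand, compounds incubated 60 min with biotinylated Cbl-b, then 90 min with His-LCK and ATP (1 mM in 2× mix); IC50 from 10 concentrations, DMSO high and no-LCK low controls.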
Chain of Cbl-b (Q13191 40-426): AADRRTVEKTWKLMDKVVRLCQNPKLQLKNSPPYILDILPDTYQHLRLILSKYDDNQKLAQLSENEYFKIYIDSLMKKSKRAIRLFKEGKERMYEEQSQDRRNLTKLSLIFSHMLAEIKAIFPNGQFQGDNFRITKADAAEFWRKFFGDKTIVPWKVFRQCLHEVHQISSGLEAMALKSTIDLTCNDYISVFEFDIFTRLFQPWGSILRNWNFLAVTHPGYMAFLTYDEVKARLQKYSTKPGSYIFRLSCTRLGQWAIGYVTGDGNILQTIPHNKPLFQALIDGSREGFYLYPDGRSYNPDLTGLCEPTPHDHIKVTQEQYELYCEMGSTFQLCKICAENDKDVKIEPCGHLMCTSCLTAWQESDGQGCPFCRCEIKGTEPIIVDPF

A further assay has as its target c-Cbl (Homo sapiens (Human), UniProt P22681). In words: C-Cbl LCK Ub TR-FRET assay (c-cbl Lck HTRF). To be noted: for (fold-selectivity): C-cbl Lck HTRF IC50 relative to Cbl-b Lck HTRF IC50. The class given is biochemical. A digest of the protocol:
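Detection reagents added, brief spin, 20 min RT. IC50 fit normalized to no-LCK (low) and DMSO (high) controls.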

Chain of c-Cbl (P22681 47-435): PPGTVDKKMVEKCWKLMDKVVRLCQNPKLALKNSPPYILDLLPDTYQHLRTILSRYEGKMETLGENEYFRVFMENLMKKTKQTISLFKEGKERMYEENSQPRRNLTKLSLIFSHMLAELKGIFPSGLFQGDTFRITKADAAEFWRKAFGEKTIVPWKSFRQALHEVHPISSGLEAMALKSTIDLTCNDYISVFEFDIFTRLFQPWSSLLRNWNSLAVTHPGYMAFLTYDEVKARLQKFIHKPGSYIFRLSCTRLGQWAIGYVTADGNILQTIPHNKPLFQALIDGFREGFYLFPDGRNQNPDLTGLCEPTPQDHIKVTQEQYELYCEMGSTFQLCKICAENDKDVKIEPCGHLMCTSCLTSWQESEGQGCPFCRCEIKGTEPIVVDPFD

In turn, `COC[C@H]1CCCN1Cc1cc2c(c(C(F)(F)F)c1)CN(c1cccc(C3([C@H](F)c4nncn4C)COC3)c1)C2=O` [Compound 156, 2-(3-(3-((S)-fluoro(4-methyl-4H-1,2,4-triazol-3-yl)methyl)oxetan-3-yl)phenyl)-6-(((R)-2-(methoxymethyl)pyrrolidin-1-yl)methyl)-4-(trifluoromethyl)isoindolin-1-one] displayed a half-maximal inhibitory concentration (IC50) against Cbl-b of 920 nM. Moreover, the fold of selectivity at Cbl-b (Cbl-b over c-Cbl, Lck HTRF IC50) was determined as 5.6x. In addition, on c-Cbl, the IC50 is 5200 nM and the “(fold-selectivity)” value amounted to 5.6x.
Consider `Cn1cnnc1CC1(c2cccc(N3Cc4c(cc(CNC5(C)CCC5)cc4C(F)(F)F)C3=O)c2)CC(F)(F)C1` [Compound 232, 2-(3-(3,3-difluoro-1-((4-methyl-4H-1,2,4-triazol-3-yl)methyl)-cyclobutyl)phenyl)-6-(((1-methylcyclobutyl)amino)methyl)-4-(trifluoromethyl)isoindolin-1-one], for which the concentration for half-maximal inhibition (IC50) worked out at 11 nM against Cbl-b and 8 nM on c-Cbl. For the same compound, on c-Cbl, the “(fold-selectivity)” value is recorded as “(0.80x)”.
The corresponding values for `Cn1cnnc1CC1(c2cc(CCC(C)(C)C)nc(N3Cc4c(cc(CNC5(C)CCC5)cc4C(F)(F)F)C3=O)c2)CCC1` [Compound 322, 2-(6-(3,3-dimethylbutyl)-4-(1-((4-methyl-4H-1,2,4-triazol-3-yl)methyl)cyclobutyl)pyridin-2-yl)-6-(((1-methylcyclobutyl)amino)methyl)-4-(trifluoromethyl)isoindolin-1-one] are 27 nM, 34 nM and “(1.2x)”.
The matching figures for `Cn1cnnc1[C@@H](F)C1(c2cccc(N3Cc4c(cc(CN5CC(C)(CCl)C5)cc4C(F)(F)F)C3=O)c2)COC1` [Compound 104, (S)-6-((3-(chloromethyl)-3-methylazetidin-1-yl)methyl)-2-(3-(3-(fluoro(4-methyl-4H-1,2,4-triazol-3-yl)methyl)oxetan-3-yl)phenyl)-4-(trifluoromethyl)isoindolin-1-one]: 48 nM, 89 nM and 1.9x.
`CN1C[C@@H]2C[C@H]1CN2Cc1cc2c(c(C(F)(F)F)c1)CN(c1cccc(C3(Cc4nncn4C)CC(F)(F)C3)c1)C2=O` [Compound 414, 2-(3-(3,3-difluoro-1-((4-methyl-4H-1,2,4-triazol-3-yl)methyl)cyclobutyl)phenyl)-6-(((1S,4S)-5-methyl-2,5-diazabicyclo[2.2.1]heptan-2-yl)methyl)-4-(trifluoromethyl)isoindolin-1-one] had an IC50 at Cbl-b of 88 nM. On c-Cbl, the IC50 is 68 nM and the “(fold-selectivity)” value is recorded as “(0.77x)”.
The compound `Cc1ncn(CC2(c3cccc(N4Cc5c(cc(CN6CCN(C)C[C@@H]6C(C)C)cc5C(F)(F)F)C4=O)c3)COC2)n1` [Compound 255, (S)-6-((2-isopropyl-4-methylpiperazin-1-yl)methyl)-2-(3-(3-((3-methyl-1H-1,2,4-triazol-1-yl)methyl)oxetan-3-yl)phenyl)-4-(trifluoromethyl)isoindolin-1-one] gave an IC50 on Cbl-b of 20000 nM. For the same compound, at c-Cbl, the IC50 is at least 20000 nM and the “(fold-selectivity)” value was “(1.0x)”.
At Cbl-b, `CN1CCN(Cc2cc3c(c(C(F)(F)F)c2)CN(c2cccc(C4(Cc5nncn5C)CC(F)(F)C4)c2)C3=O)[C@@H](C2CC2)C1` [Compound 402, (S)-6-((2-cyclopropyl-4-methylpiperazin-1-yl)methyl)-2-(3-(3,3-difluoro-1-((4-methyl-4H-1,2,4-triazol-3-yl)methyl)cyclobutyl)phenyl)-4-(trifluoromethyl)isoindolin-1-one] registered an IC50 of 39 nM. In addition, on c-Cbl, the midpoint of inhibition, the IC50, lay at 46 nM and the “(fold-selectivity)” value is “(1.2x)”.
As for `CC(C)[C@H]1CN(C)CCN1Cc1cc2c(c(C(F)(F)F)c1)CN(c1cccc(C3(Cc4nncn4C)CC(F)(F)C3)c1)C2=O` [Compound 215, (S)-2-(3-(3,3-difluoro-1-((4-methyl-4H-1,2,4-triazol-3-yl)methyl)cyclobutyl)phenyl)-6-((2-isopropyl-4-methylpiperazin-1-yl)methyl)-4-(trifluoromethyl)isoindolin-1-one], the midpoint of inhibition against Cbl-b, the IC50, lay at 7.5 nM. Also, at c-Cbl, the IC50 was determined as 5 nM and the “(fold-selectivity)” value is reported as 0.66x.
The matching figures for `Cn1cnnc1[C@@H](F)C1(c2cccc(N3Cc4c(cc(CN5CC[C@H](F)C5)cc4C(F)(F)F)C3=O)c2)COC1` [Compound 83, 2-(3-(3-((S)-fluoro(4-methyl-4H-1,2,4-triazol-3-yl)methyl)oxetan-3-yl)phenyl)-6-(((S)-3-fluoropyrrolidin-1-yl)methyl)-4-(trifluoromethyl)isoindolin-1-one]: 210 nM, 640 nM and 3.1x.
At Cbl-b, `Cn1cnnc1[C@H](F)C1(c2cccc(N3Cc4c(cc(CN)cc4C(F)(F)F)C3=O)c2)CCC1` [Compound 386, (R)-6-(aminomethyl)-2-(3-(1-(fluoro(4-methyl-4H-1,2,4-triazol-3-yl)methyl)cyclobutyl)phenyl)-4-(trifluoromethyl)isoindolin-1-one] registered an IC50 of 32 nM. Further, on c-Cbl, the concentration for half-maximal inhibition (IC50) stood at 31 nM and the “(fold-selectivity)” value was “(0.98x)”.
The compound `Cn1cnnc1CC1(c2cccc(N3Cc4c(cc(CNC5CCCC5)cc4C(F)(F)F)C3=O)c2)CC(F)(F)C1` [Compound 364, 6-((cyclopentylamino)methyl)-2-(3-(3,3-difluoro-1-((4-methyl-4H-1,2,4-triazol-3-yl)methyl)cyclobutyl)phenyl)-4-(trifluoromethyl)isoindolin-1-one] registered an IC50 at Cbl-b of 15 nM. At c-Cbl, it took 9.7 nM to reach half-maximal inhibition (IC50) and the “(fold-selectivity)” value is listed as “(0.63x)”.
With `Cn1cnnc1[C@H](F)C1(c2cccc(N3Cc4c(cc([C@H](N)CC5CC5)cc4C(F)(F)F)C3=O)c2)COC1` [Compound 390, 6-((R)-1-amino-2-cyclopropylethyl)-2-(3-(3-((R)-fluoro(4-methyl-4H-1,2,4-triazol-3-yl)methyl)oxetan-3-yl)phenyl)-4-(trifluoromethyl)isoindolin-1-one], on Cbl-b, the half-inhibitory concentration (IC50) is 96 nM. Moreover, at c-Cbl, the concentration for half-maximal inhibition (IC50) was 11 nM and the “(fold-selectivity)” value is “(1.1x)”.
The matching figures for `CC(C)[C@H]1CN(C)CCN1Cc1cc2c(c(C(F)(F)F)c1)CN(c1cccc(C3(Cc4nncn4C)CCC3)c1)C2=O` [Compound 410, (S)-6-((2-isopropyl-4-methylpiperazin-1-yl)methyl)-2-(3-(1-((4-methyl-4H-1,2,4-triazol-3-yl)methyl)cyclobutyl)phenyl)-4-(trifluoromethyl)isoindolin-1-one]: 12 nM, 77 nM and “(0.62x)”.
On to `CCCNCc1cc2c(c(C(F)(F)F)c1)CN(c1cccc(C3([C@@H](F)c4nncn4C)COC3)c1)C2=O` [Compound 228, (R)-2-(3-(3-(fluoro(4-methyl-4H-1,2,4-triazol-3-yl)methyl)oxetan-3-yl)phenyl)-6-((propylamino)methyl)-4-(trifluoromethyl)isoindolin-1-one formate], for which the half-maximal inhibitory concentration (IC50) was 12 nM on Cbl-b and 96 nM on c-Cbl.
In turn, `CN1CCN(Cc2cc3c(c(C(F)(F)F)c2)CN(c2cccc(C4(Cc5nncn5C)CC(F)(F)C4)c2)C3=O)C(=O)C1` [Compound 444, 2-(3-(3,3-difluoro-1-((4-methyl-4H-1,2,4-triazol-3-yl)methyl)cyclobutyl)phenyl)-6-((4-methyl-2-oxopiperazin-1-yl)methyl)-4-(trifluoromethyl)isoindolin-1-one] had an IC50 on Cbl-b of 170 nM. Besides, on c-Cbl, inhibition was half-maximal at 180 nM (IC50) and the “(fold-selectivity)” value is reported as “(1.1x)”.
Take `Cn1cnnc1[C@H](F)[C@](C)(F)c1cccc(N2Cc3c(cc(CN4CC(C)(F)C4)cc3C(F)(F)F)C2=O)c1` [Compound 31, 2-(3-((1 S,2R)-1,2-difluoro-1-(4-methyl-4H-1,2,4-triazol-3-yl)propan-2-yl)phenyl)-6-((3-fluoro-3-methylazetidin-1-yl)methyl)-4-(trifluoromethyl)isoindolin-1-one]: the IC50 against Cbl-b was 88 nM. In addition, at c-Cbl, the half-inhibitory concentration (IC50) was found to be 130 nM and the “(fold-selectivity)” value is reported as 1.4x.
Take `Cn1cnnc1CC1(c2cccc(N3Cc4c(cc(CNCC5COC5)cc4C(F)(F)F)C3=O)c2)CC(F)(F)C1` [Compound 368, 2-(3-(3,3-difluoro-1-((4-methyl-4H-1,2,4-triazol-3-yl)methyl)cyclobutyl)phenyl)-6-(((oxetan-3-ylmethyl)amino)methyl)-4-(trifluoromethyl)isoindolin-1-one]: the IC50 on Cbl-b was found to be 20 nM. For the same compound, at c-Cbl, the 50% inhibitory concentration (IC50) came out at 14 nM and the “(fold-selectivity)” value is reported as “(0.72x)”.
`CN1CC(Cc2cc3c(c(C(F)(F)F)c2)CN(c2cccc(C4(Cc5nncn5C)CC(F)(F)C4)c2)C3=O)C1` [Compound 442, 2-(3-(3,3-difluoro-1-((4-methyl-4H-1,2,4-triazol-3-yl)methyl)cyclobutyl)phenyl)-6-((1-methylazetidin-3-yl)methyl)-4-(trifluoromethyl)isoindolin-1-one formate]: the concentration for half-maximal inhibition (IC50) stood at 96 nM at Cbl-b and 64 nM against c-Cbl.
Regarding `Cn1cnnc1CC1(c2cccc(N3Cc4c(cc(CNC56CC(C)(C5)C6)cc4C(F)(F)F)C3=O)c2)CC(F)(F)C1` [Compound 354, 2-(3-(3,3-difluoro-1-((4-methyl-4H-1,2,4-triazol-3-yl)methyl)cyclobutyl)phenyl)-6-(((3-methylbicyclo[1.1.1]pentan-1-yl)amino)methyl)-4-(trifluoromethyl)isoindolin-1-one formate], the IC50 turned out to be 13 nM against Cbl-b and 7 nM against c-Cbl.
